# Reference: patent publication US11390621B2, “Chiral indole compounds and their use” (ARIAGEN, INC., priority 2019, dated 2022)
# Values joined by “and” are separate entries in the source; they are usually repeats but may differ in a detail not shown here. Equal entries are not always repeated. Where two headings read alike, the source gives them in different places. Marks after values point to notes of the source that are not given here.
# Assays:
# EMT-6 cancer cells = assay: EMT-6 subcutaneous syngeneic mouse tumor model (Example 48); type: in vivo, BALB/C mice; conditions: 40 mg/kg, IP
# Experimental: (§1) This example describes in vivo studies that evaluated the anti-cancer efficacy of ARI-143, ARI-164, ARI-165, and ARI-186 in syngeneic mouse tumor models. Mice implanted subcutaneously with EMT-6 or Pan02 cancer cells were treated with ARI-143, ARI-164, ARI-165, ARI-186, or vehicle controls, as described below.
# (§2) A monolayer culture of tumor cells was maintained in vitro in DMEM or RPMI1640 medium supplemented with 10% fetal bovine serum at 37° C. in an atmosphere of 5% CO2. Cells in exponential growth phase were harvested and quantitated by cell counter before tumor inoculation. The cell lines used are described in the table below.
# (§3) Two subcutaneous syngeneic mouse tumor models were generated by innoculating female BALB/C or C57BL/6 mice with cancer cells at their right lower or front flank as detailed in the table below:
# (§4) Each mouse was inoculated subcutaneously with tumor cells in 0.1 mL of PBS. Treatments were started when the mean tumor size reached approximately 80-120 mm^3 (around 100 mm^3). The administration of the test compounds and the animal number in each study group are shown in the study design. The date of tumor cell inoculation was denoted as day 0.
# (§5) ARI-143, ARI-164, and ARI-165 were dissolved in DMSO at the final concentration of 26.7 mg/ml and stored at room temperature. In Pan02 studies of ARI-164 and ARI-186, both compounds were dissolved in 100% PEG400.
# Randomization of animals was started when the mean tumor size reached approximately 90 mm^3 to form the mouse study groups. The randomization was-performed based on “Matched distribution” method using the multi-task method (StudyDirector™ software, version 3.1.399.19)/randomized block design. The mouse groups (ten in each group) were treated with vehicle (DMSO or PEG400) or the test compounds at a dose of 26-80 mg/kg by intraperitoneal (i.p.). injection, QD for 28 days or longer.
# (§6) After tumor cell inoculation, the mice were checked daily for morbidity and mortality. During routine monitoring, the mice were checked for tumor growth and any effects of the treatment on behavior such as mobility, food and water consumption, body weight gain/loss (body weights were measured twice per week after randomization), eye/hair matting, and any other abnormalities. Mortality and observed clinical signs were recorded for individual mice in detail.
# (§7) Tumor volumes were measured twice per week in two dimensions using a caliper, and the volume was expressed in mm^3 using the formula: V=(L×W×W)/2, where V is tumor volume, L is tumor length (the longest tumor dimension) and W is tumor width (the longest tumor dimension perpendicular to L). Dosing as well as tumor and body weight measurements was conducted in a Laminar Flow Cabinet. The body weights and tumor volumes were measured by using StudyDirector™ software (version 3.1.399.19). Dosing Holiday
# (§8) Tumor growth inhibition percentage (TGI %) is an indicator for antitumor activity of a drug compound, and expressed as: TGI(%)=100×(1−T/C), where T and C are the mean tumor volume (or weight) of the treated and control groups, respectively, on a given day. Statistical analysis of the difference in mean tumor volume (MTV) among the groups was conducted using the data collected on the day when the MTV of the vehicle group reached the humane endpoints, so that TGI could be derived for all or most mice enrolled in the study.
# [1] = In vivo pharmacokinetic studies in mice; parameters: species or system Balb/C mice
# Pan02 cancer cells = assay: Pan02 subcutaneous syngeneic mouse tumor model (Example 48); type: in vivo, C57BL/6 mice; conditions: for TGI: IP; for tumor inhibition versus vehicle: Pan02 tumors
# Experimental: as §1, §2, §3, §4, §5
# Randomization of animals was started when the mean tumor size reached approximately 90 mm^3 to form the mouse study groups. The randomization was-performed based on “Matched distribution” method using the multi-task method (StudyDirector™ software, version 3.1.399.19)/randomized block design. […]
# as §6, §7, §8
# EMT-6 = EMT-6 syngeneic mouse tumor model, ARI-164 / anti-PD-1 / combination (Example 49); type: in vivo; conditions: EMT-6 model
# Experimental: (§9) In this example, the in vivo anti-tumor efficacy of a combination of ARI-164 with an anti-PD-1 antibody was evaluated using a panel of seven subcutaneous syngeneic mouse tumor models.
# (§10) Seven subcutaneous syngeneic mouse tumor models were generated by innoculating female BALB/C or C57BL/6 mice with cancer cells at their right lower or right front flank followed by randomization as detailed in Table 10 below.
# (§11) A solution of a rat monoclonal anti-mouse PD-1 antibody (isotype IgG2a, κ) at a concentration of 6.61 mg/ml was obtained from BioXcell (InVivoMAb anti-mouse PD-1 (CD279), Clone RMP1-14, Cat #BE0146)) and store at 4° C. The antibody solution was diluted with PBS to obtain a 1 mg/ml dosing solution.
# (§12) ARI-164 powder was stored at −20° C. The powder of the compound was dissolved in DMSO to obtain dosing solutions at 26.7 mg/ml for administration to mice at 40 mg/kg, respectively.
# (§13) Seven studies using the seven subcutaneous syngeneic mouse tumor models were performed. In each study, 80 mice were enrolled and randomly allocated to eight different study groups, with 10 mice in each study group. The mean tumor size at randomization was approximately 80-120 mm^3 (around 100 mm^3). Randomization was performed based on “Matched distribution” randomization method (StudyDirector™ software, version 3.1.399.19). […]
# (§14) The data was collected and analyzed as described above in Example 48.
# Pan02 = Pan02 syngeneic mouse tumor model, ARI-164 / anti-PD-1 / combination (Example 49); type: in vivo
# Experimental: as §9, §10, §11, §12, §13, §14
# [2] = Balb/C, mouse, plasma, mice, single 40 mg/kg oral dose
# [3] = Balb/C, mouse, plasma, mice, single 40 mg/kg oral dose, from mean profile
# [4] = Balb/C, mouse, plasma, mice, read-out: half-life (converted)
# [5] = mice, single 40 mg/kg oral dose, Mean
# [6] = mice, single 40 mg/kg oral dose, individual mouse (M1-M3), 40 mg/kg
# [7] = intraperitoneal, anti-PD-1 10 mg/kg BIW, ARI-164 40 mg/kg QD
# [8] = mice, single 40 mg/kg oral dose
# [9] = mouse, plasma, Balb/C mice, single dose IP 40 mg/kg
# [10] = mouse, plasma, Balb/C mice, single dose IV 5 mg/kg
# [11] = mouse, plasma, Balb/C mice, single dose PO 10 mg/kg
# [12] = mouse, plasma, Balb/C mice, single dose PO 40 mg/kg
compound,measurement,setting,value
"CCC(=O)c1csc(C(=O)c2c[nH]c3cc(F)ccc23)n1 [ARI-143, 1-(2-(6-fluoro-1H-indole-3-carbonyl)thiazol-4-yl)propan-1-one]",TGI,"EMT-6 cancer cells; (susp), study day 6",0.1%
same,TGI,"EMT-6 cancer cells; (susp), study day 10",−10.1%
same,TGI,"EMT-6 cancer cells; (susp), study day 13",0.6%
same,TGI,"EMT-6 cancer cells; (susp), study day 17",30.9%
same,TGI,"EMT-6 cancer cells; (susp), study day 20",41.0%
same,TGI,"EMT-6 cancer cells; (susp), study day 24",53.2%
same,TGI,"EMT-6 cancer cells; (susp), study day 27",51.8%
same,TGI,"EMT-6 cancer cells; (susp), study day 31",54.8%
"CC[C@H](O)c1csc(C(=O)c2c[nH]c3cc(F)ccc23)n1 [ARI-164, (S)-(6-Fluoro-1H-indol-3-yl)(4-(1-hydroxypropyl)thiazol-2-yl)methanone]",AUC,[1]; [2],3010 ng·h/mL
same,bioavailability,[1]; [2],15.1%
same,Cmax,[1]; [3],1870 ng/mL
same,Tmax,[1]; [3],0.5 h
same,AUC(0-t),"[1]; Balb/C, mouse, plasma, mice, single 40 mg/kg oral dose, from mean profile, read-out: AUC0-t",3010 ng·h/mL
same,AUC(0-inf),"[1]; Balb/C, mouse, plasma, mice, single 40 mg/kg oral dose, from mean profile, read-out: AUC0-∞",3020 ng·h/mL
same,half-life,"[1]; Balb/C, mouse, plasma, mice, single 40 mg/kg oral dose, from mean profile, read-out: t1/2 (converted)",1.4 h
same,half-life,[1]; [4],1.4 h
same,plasma concentration at 0.083 hr,[1]; [5],206.7
same,plasma concentration at 0.25 hr,[1]; [5],1623
same,plasma concentration at 0.5 hr,[1]; [5],1867
same,plasma concentration at 1 hr,[1]; [5],1193
same,plasma concentration at 2 hr,[1]; [5],506
same,plasma concentration at 4 hr,[1]; [5],82.8
same,plasma concentration at 8 hr,[1]; [5],7.1
same,plasma concentration at 12 hr,[1]; [5],6.5
same,plasma concentration at 24 hr,"[1]; mice, single 40 mg/kg oral dose, individual mouse (M1-M3)",BLQ
same,plasma concentration at 0.083 hr,[1]; [6],330 and 202 and 88
same,plasma concentration at 0.25 hr,[1]; [6],1780 and 1740 and 1350
same,plasma concentration at 0.5 hr,[1]; [6],1960 and 2020 and 1620
same,plasma concentration at 1 hr,[1]; [6],1050 and 1600 and 930
same,plasma concentration at 2 hr,[1]; [6],463 and 572 and 482
same,plasma concentration at 4 hr,[1]; [6],101 and 79.3 and 68.2
same,plasma concentration at 8 hr,[1]; [6],7.1 and BLQ (2×)
same,plasma concentration at 12 hr,[1]; [6],7.5 and BLQ and 5.6
same,TGI,EMT-6 cancer cells; study day 6,0.1%
same,TGI,EMT-6 cancer cells; study day 10,−10.8%
same,TGI,EMT-6 cancer cells; study day 13,−2.4%
same,TGI,EMT-6 cancer cells; study day 17,20.8%
same,TGI,EMT-6 cancer cells; study day 20,41.6%
same,TGI,EMT-6 cancer cells; study day 24,54.7%
same,TGI,EMT-6 cancer cells; study day 27,54.3%
same,TGI,EMT-6 cancer cells; study day 31,56.2%
same,TGI,"Pan02 cancer cells; 80 mg/kg, study day 0",−0.6%
same,TGI,"Pan02 cancer cells; 80 mg/kg, study day 4",−4.4%
same,TGI,"Pan02 cancer cells; 80 mg/kg, study day 7",−8.4%
same,TGI,"Pan02 cancer cells; 80 mg/kg, study day 11",26.6%
same,TGI,"Pan02 cancer cells; 80 mg/kg, study day 14",40.6%
same,TGI,"Pan02 cancer cells; 80 mg/kg, study day 18",35.3%
same,tumor inhibition versus vehicle,"Pan02 cancer cells; 80 mpk i.p. QD, study day 18",35%
same,tumor inhibition (in words),"EMT-6; combination with anti-PD-1 antibody, study day 30",significant tumor inhibition
same,TGI (%),EMT-6; [7],57.2%
same,tumor inhibition (in words),"Pan02; combination with anti-PD-1 antibody, study day 55",increased tumor inhibition
same,TGI (%),Pan02; [7],61.1%
"CC[C@H](N)c1csc(C(=O)c2c[nH]c3cc(F)ccc23)n1 [ARI-186, (S)-(4-(1-aminopropyl)thiazol-2-yl)(6-fluoro-1H-indol-3-yl)methanone]",F*,"[1]; Balb/C mice, single dose IP 40 mg/kg (value marked **)",81.4** %
same,F*,"[1]; Balb/C mice, single dose PO 10 mg/kg",63.0%
same,F*,"[1]; Balb/C mice, single dose PO 40 mg/kg (value marked **)",75.7** %
same,AUC,[1]; [2],73900 ng·h/mL
same,bioavailability,[1]; [2],75.7%
same,half-life,[1]; [4],~7.6 h
same,improvement in AUC over ARI-164 (fold),[1]; [8],24.6 ×
same,improvement in oral bioavailability over ARI-164 (fold),[1]; [8],5.0 ×
same,Cmax,[1]; [9],6230 ng/mL
same,MRT last,[1]; [9],11.2 h
same,Tmax,[1]; [9],0.5 h
same,AUC(0-t),"[1]; mouse, plasma, Balb/C mice, single dose IP 40 mg/kg, read-out: AUClast",79400 ng·h/mL
same,Cmax,[1]; [10],2130 ng/mL
same,MRT inf,[1]; [10],9.55 h
same,MRT last,[1]; [10],6.99 h
same,Tmax,[1]; [10],0.083 h
same,clearance,[1]; [10],6.18 mL/min/kg
same,AUC(0-inf),"[1]; mouse, plasma, Balb/C mice, single dose IV 5 mg/kg, read-out: AUCinf",13500 ng·h/mL
same,AUC(0-t),"[1]; mouse, plasma, Balb/C mice, single dose IV 5 mg/kg, read-out: AUClast",12200 ng·h/mL
same,half-life,"[1]; mouse, plasma, Balb/C mice, single dose IV 5 mg/kg, read-out: T1/2 (converted)",7.62 h
same,Vd,"[1]; mouse, plasma, Balb/C mice, single dose IV 5 mg/kg, read-out: Vss",3.55 L/kg
same,Cmax,[1]; [11],1380 ng/mL
same,MRT inf,[1]; [11],8.21 h
same,MRT last,[1]; [11],6.76 h
same,Tmax,[1]; [11],2 h
same,AUC(0-inf),"[1]; mouse, plasma, Balb/C mice, single dose PO 10 mg/kg, read-out: AUCinf",17000 ng·h/mL
same,AUC(0-t),"[1]; mouse, plasma, Balb/C mice, single dose PO 10 mg/kg, read-out: AUClast",16100 ng·h/mL
same,half-life,"[1]; mouse, plasma, Balb/C mice, single dose PO 10 mg/kg, read-out: T1/2 (converted)",5.56 h
same,Cmax,[1]; [12],5000 ng/mL
same,MRT last,[1]; [12],9.35 h
same,Tmax,[1]; [12],2 h
same,AUC(0-t),"[1]; mouse, plasma, Balb/C mice, single dose PO 40 mg/kg, read-out: AUClast",73900 ng·h/mL
same,TGI,"Pan02 cancer cells; 20 mg/kg, study day 0",−2.0%
same,TGI,"Pan02 cancer cells; 20 mg/kg, study day 4",−13.0%
same,TGI,"Pan02 cancer cells; 20 mg/kg, study day 7",−0.3%
same,TGI,"Pan02 cancer cells; 20 mg/kg, study day 11",27.0%
same,TGI,"Pan02 cancer cells; 20 mg/kg, study day 14",49.5%
same,TGI,"Pan02 cancer cells; 20 mg/kg, study day 18",61.9%
same,tumor inhibition versus vehicle,"Pan02 cancer cells; 20 mpk i.p. QD, study day 18",62%
